Experimental data from US20230065953A1, “NOVEL HETEROARYL-TRIAZOLE COMPOUNDS AS PESTICIDES” (Bayer Aktiengesellschaft, priority 2019, published 2023).

Key:
[1] = test system: larvae of the banded cucumber beetle (Diabrotica balteata); test: Diabrotica balteata spray test; assay type: in vivo; settings: 168 h, 100 g/ha (=32 μg/well), wheat seeds, after 7 days, read-out: efficacy (seedling growth)
Method: Diabrotica Balteata—Spray Test
• Solvent: 78.0 parts by weight of acetone • 1.5 parts by weight of dimethylformamide • Emulsifier: alkylarylpolyglycol ether
Further test concentrations are prepared by dilution with emulsifier containing water.
Soaked wheat seeds (Triticum aestivum) are placed in a multiple well plate filled with agar and some water and are incubated for 1 day to germinate (5 seeds per well). The germinated wheat seeds are sprayed with a test solution containing the desired concentration of the active ingredient. Afterwards each unit is infected with 10-20 larvae of the banded cucumber beetle (Diabrotica balteata).
After 7 days efficacy in % is determined.

[2] = test system: fall armyworm larvae (Spodoptera frugiperda); test: Spodoptera frugiperda spray test (maize leaf sections); assay type: in vivo; settings: 168 h
Method: Spodoptera frugiperda—Spray Test • Solvent: 78.0 parts by weight acetone • 1.5 parts by weight dimethylformamide • Emulsifier: alkylarylpolyglycol ether
To produce a suitable preparation of active compound, 1 part by weight of active compound is mixed with the stated amount of solvents and is diluted with water, containing an emulsifier concentration of 1000 ppm, to the desired concentration. Further test concentrations are prepared by dilution with emulsifier containing water.
Maize (Zea mays) leaf sections are sprayed with a preparation of the active ingredient of the desired concentration. Once dry, the leaf sections are infested with fall armyworm larvae (Spodoptera frugiperda).
After 7 days mortality in % is determined. 100% means all caterpillars have been killed and 0% means none of the caterpillars have been killed.

Row | SMILES | pest or weed control at 32 µg/disc, 100 g/ha [1] | mortality at 100 g/ha [2]
1 | Cc1nc([C@H](C)NC(=O)c2cc(Cl)cc(C(F)(F)F)c2)n(-c2ncc(C(=O)N(C)C)s2)n1 [I-22] | 100% | 100%
2 | C[C@H](NC(=O)c1cc(F)cc(C#N)c1)c1ncnn1-c1ncc(C#N)s1 [I-41] | 100% | 100%
3 | C[C@H](NC(=O)c1cc(Br)cc(C2(F)CC2)c1)c1ncnn1-c1ncc(C#N)s1 [I-43] | 100% | 100%
4 | C[C@H](NC(=O)c1cc(C(F)F)cc(C2CC2)c1)c1ncnn1-c1ncc(C#N)s1 [I-44] | 100% | 100%
5 | C[C@H](NC(=O)c1cc(Br)cc(C2CC2(F)F)c1)c1ncnn1-c1ncc(C#N)s1 (stereo partly shown) [I-45] | 100% | 100%
6 | C[C@H](NC(=O)c1cc(OC(F)(F)F)cc(S(C)(=O)=O)c1)c1nc(C2CC2)nn1-c1ncc(C#N)s1 [I-48] | 100% | 100%
7 | C[C@H](NC(=O)c1cc(F)cc(C(F)F)c1)c1ncnn1-c1ncc(C#N)s1 [I-49] | 100% | 100%
8 | C[C@H](NC(=O)c1cc(F)cc(OC(F)F)c1)c1ncnn1-c1ncc(C#N)s1 [I-53] | 100% | 100%
9 | C[C@H](NC(=O)c1cc(Br)cc(S(=O)(=O)C(F)(F)F)c1)c1ncnn1-c1ncc(C#N)s1 [I-55] | 100% | 100%
10 | C[C@H](NC(=O)c1cc(C2CC2)cc(S(=O)(=O)C(F)(F)F)c1)c1ncnn1-c1ncc(C#N)s1 [I-56] | 100% | 100%
11 | C[C@H](NC(=O)c1cc(Br)cc(OC(F)(F)F)c1)c1ncnn1-c1ncc(C#N)s1 [I-57] | 80% | 100%
12 | C[C@H](NC(=O)c1cc(Br)cc(C#N)c1)c1ncnn1-c1ncc(C#N)s1 [I-58] | 100% | 
13 | C[C@H](NC(=O)c1cc(OC(F)(F)F)cc(S(=O)(=O)C2CC2)c1)c1ncnn1-c1ncc(C#N)s1 [I-61] | 100% | 100%
14 | CCS(=O)(=O)c1cc(OC(F)(F)F)cc(C(=O)N[C@@H](C)c2ncnn2-c2ncc(C#N)s2)c1 [I-62] | 100% | 100%
15 | CC(C)S(=O)(=O)c1cc(OC(F)(F)F)cc(C(=O)N[C@@H](C)c2ncnn2-c2ncc(C#N)s2)c1 [I-63] | 100% | 
16 | Cc1nc([C@H](C)NC(=O)c2cc(Cl)cc(C(F)(F)F)c2)n(-c2ncc(C(=O)NC(C)C)s2)n1 [I-68] | 100% | 100%
17 | CC(NC(=O)c1cc(Br)cc(OCC(F)(F)F)c1)c1ncnn1-c1ncc(C#N)s1 (stereo not shown) [I-88] | 100% | 100%
18 | Cc1nc([C@H](C)NC(=O)c2cc(Br)cc(OCC(F)(F)F)c2)n(-c2ncc(C#N)s2)n1 [I-92] | 100% | 100%
19 | C[C@H](NC(=O)c1cc(Cl)cc(C#N)c1)c1ncnn1-c1ncc(C#N)s1 [I-101] | 100% | 100%
20 | C[C@H](NC(=O)c1cc(Cl)cc(S(=O)(=O)C(F)(F)F)c1)c1ncnn1-c1ncc(C(=O)N(C)C)s1 [I-116] | 100% | 100%
21 | CNC(=O)c1cnc(-n2ncnc2[C@H](C)NC(=O)c2cc(Cl)cc(C3CC3)c2)s1 [I-122] | 100% | 100%
22 | C[C@H](NC(=O)c1cc(OC(F)F)cc(S(C)(=O)=O)c1)c1nc(C2CC2)nn1-c1ncc(C#N)s1 [I-132] | 100% | 100%

Row | SMILES | pest or weed control at 32 µg/disc, 100 g/ha [1] | mortality at 100 g/ha [2]
23 | C[C@H](NC(=O)c1cc(OC(F)F)cc(S(=O)(=O)C2CC2)c1)c1nc(C2CC2)nn1-c1ncc(C#N)s1 [I-133] | 100% | 100%
24 | C[C@H](NC(=O)c1cc(C#N)cc(OC(F)(F)F)c1)c1ncnn1-c1ncc(C#N)s1 [I-135] | 100% | 100%
25 | C[C@H](NC(=O)c1cc(Cl)nc(OC(F)(F)F)c1)c1ncnn1-c1ncc(C#N)s1 [I-139] | 100% | 100%
26 | CNC(=O)c1cnc(-n2ncnc2[C@H](C)NC(=O)c2cc(Cl)cc(S(=O)(=O)c3ccc(Cl)cc3)c2)s1 [I-140] | 100% | 100%
27 | C[C@H](NC(=O)c1cc(Cl)cc(S(=O)(=O)c2ccc(Cl)cc2)c1)c1ncnn1-c1ncc(C(=O)N(C)C)s1 [I-141] |  | 100%
28 | C[C@H](NC(=O)c1cc(Cl)cc(S(=O)(=O)c2ccc(Cl)cc2)c1)c1ncnn1-c1ncc(C#N)s1 [I-143] | 80% | 100%
29 | C[C@H](NC(=O)c1cc(OC(F)(F)F)cc(OC(F)(F)F)c1)c1ncnn1-c1ncc(C#N)s1 [I-144] | 100% | 100%
30 | C[C@H](NC(=O)c1cc(Br)cc(OC(F)(F)F)c1)c1ncnn1-c1ncc(C(=O)N(C)C2CC2)s1 [I-145] | 100% | 100%
31 | C[C@H](NC(=O)c1cc(Cl)cc(S(=O)(=O)C(F)F)c1)c1ncnn1-c1ncc(C(=O)N(C)C2CC2)s1 [I-146] | 100% | 100%
32 | C[C@H](NC(=O)c1cc(OC(F)(F)F)cc(S(C)(=O)=O)c1)c1ncnn1-c1ncc(C(=O)N(C)C2CC2)s1 [I-147] | 100% | 100%
33 | C[C@H](NC(=O)c1cc(Cl)cc(S(=O)(=O)c2ccc(Cl)cc2)c1)c1ncnn1-c1ncc(C(=O)N(C)C2CC2)s1 [I-149] | 100% | 100%
34 | C[C@H](NC(=O)c1cc(C(F)F)cc(C(F)F)c1)c1ncnn1-c1ncc(C(=O)N(C)C2CC2)s1 [I-150] | 100% | 100%
35 | C[C@H](NC(=O)c1cc(C(F)(F)F)cc(C(F)(F)F)c1)c1ncnn1-c1ncc(C(=O)N(C)C2CC2)s1 [I-151] | 100% | 100%
36 | C[C@H](NC(=O)c1cc(Cl)cc(S(=O)(=O)C(F)(F)F)c1)c1ncnn1-c1ncc(C(=O)N(C)C2CC2)s1 [I-153] | 100% | 100%
37 | C[C@H](NC(=O)c1cc(C(F)(F)F)cc(C(F)(F)F)c1)c1nc(C2CC2)nn1-c1ncc(C(=O)N(C)C)s1 [I-156] | 100% | 100%
38 | C[C@H](NC(=O)c1cc(OC(F)(F)F)cc(C2CC2)c1)c1nc(C2CC2)nn1-c1ncc(C(=O)N(C)C)s1 [I-157, 2-(3-cyclopropyl-5-{(1S)-1-[3-cyclopropyl-5-(trifluoromethoxy)benzamido]ethyl}-1H-1,2,4-triazol-1-yl)-N,N-dimethyl-1,3-thiazole-5-carboxamide] | 100% | 100%
39 | Cc1nc([C@H](C)NC(=O)c2cc(OC(F)(F)F)cc(S(C)(=O)=O)c2)n(-c2ncc(C#N)s2)n1 [I-159] | 100% | 100%
40 | Cc1nc([C@H](C)NC(=O)c2cc(Cl)cc(S(=O)(=O)C(F)(F)F)c2)n(-c2ncc(C#N)s2)n1 [I-160] | 100% | 100%
41 | Cc1nc([C@H](C)NC(=O)c2cc(S(=O)(=O)C(F)(F)F)cc(S(=O)(=O)C(F)(F)F)c2)n(-c2ncc(C#N)s2)n1 [I-162] | 100% | 100%
42 | Cc1nc([C@H](C)NC(=O)c2cc(Cl)cc(S(=O)(=O)C3CC3)c2)n(-c2ncc(C#N)s2)n1 [I-163] | 100% | 100%
43 | COc1nc(C(C)NC(=O)c2cc(OC(F)(F)F)cc(S(=O)(=O)C3CC3)c2)n(-c2ncc(C#N)s2)n1 (stereo not shown) [I-200, N-{1-[1-(5-cyano-1,3-thiazol-2-yl)-3-methoxy-1H-1,2,4-triazol-5-yl]ethyl}-3-(cyclopropylsulfonyl)-5-(trifluoromethoxy)benzamide] | 100% | 
